The source of these data is patent US4174407A, “Antiviral agent” (Sumitomo Chemical Company, Limited, priority 1978, dated 1979).

The LD50 is the dose at which mortality reaches 50%. A lower LD50 goes with greater toxicity.

Data set [1] relates to herpes simplex type 1 (HF strain). Kind of data set: Tube dilution method, virus-induced cytopathic effect in tissue culture (antiviral MIC). In kind it is cell-based. The note with it: for MIC: read-out: Minimum virus growth inhibition concentration (MIC).
Data set [2] can be described thus: Cytotoxicity in KB cells by microscopic examination (MCC). The note with it: human.
The nature of data set [3]: Cytotoxicity in HeLa cells by microscopic examination (MCC). The note with it: human.
Another data set relates to Influenza Ao PR/8. In kind it is in vivo, ddY male mice. The note with it: 7 days after infection, control 4.8.
Another data set concerns DNA virus. The note with it: general knowledge; cited from earlier work.
The next data set in a line: in vivo. The note with it: mouse.
In another data set the test system is influenza virus. Nature of the data set: Antiviral activities on influenza virus (general statement).
Data set [4] deals with herpes simplex virus type 1 (HF strain). Nature of the data set: Effects on herpeskeratitis, eye lotion in rabbits (cure period and toxicity). In kind it is in vivo. The note with it: 0.5% eye lotion in 1.4% polyvinyl alcohol, every two hours, five times a day, 7 days; rabbit eye. The protocol:
(§1) Therapeutic effects were determined by using two experimental infections as follows.
The corneal epithelium of each eye of rabbit was anesthetized and scratched, then each eye was infected with herpes simplex virus type 1 (HF strain). One of each infected eyes was used for treatment with the compound A and the other was used for viral control. One half % eye lotion of the compound A in 1.4% polyvinyl alcohol was applied every two hours, five times a day during 7 days 12 hr. after virus infection. Each eye was daily examined and scored the lesion on the conjunctiva, cornea and the iris for 7 days. In this score 0 means normal and 4 means maximal severity. The eyes scratched but not infected with virus were similarly treated with compound A in parallel as toxicity control.

The next data set relates to herpes virus. Kind of data set: Antiviral activities on herpes virus (general statement).
Data set [5] relates to herpes simplex virus type 1 HF strain. Kind of data set: Effects on herpesencephalitis, intracerebrally infected mice. In kind it is in vivo. The note with it: for Survival ratio (no. of survivors/no. of total mice): 21st day, control 0/10. How it is done: as §1
Mice were anesthetized with ether and were infected intracerabrally (i.c.) with 30 LD50 of herpes simplex virus type 1 HF strain. Infected mice were treated with various therapeutic schedules. The antiviral effects of the compound A was determined by comparing the number of survivors at 3 weeks after viral infection and the mean survival days of the drug-treatedand placebo-treated animals.
(a) Dose of administration
(b) Schedule of administration of each route was as follows, i.c. (intracerebrally): single administration simultaneously with virus infection p.o (per os): twice administration per day during 8.5 days from 4 hr. after virus infection s.c. (subcutaneously): twice administration per day during 8.5 days from 4 hr. after virus infection i.v. (intravenously): single administration at 3 hr. after virus infection
(c) The animals were examined for 21 days and deaths occuring were recorded.
(d) Survivors at 21st day.

The next data set concerns Newcastle disease virus. The note with it: Aigami et al., J. Med. Chem. 19, 536, 1976; cited from earlier work.
Setting [6] is: host cells KB, 1000 TCD50, 72 hr, 37° C.

Structures are written as SMILES. ≈ marks a conversion by molar mass, not a printed value. Counter-ions that a name gives are not always drawn. Like-named read-outs stand apart in the source and are kept apart here.

As to `NC12CC3CC(CC(C3)C1)C2` [Amantadine HCl, amantadine hydrochloride, reference compound], the MIC in data set [1] (Human alphaherpesvirus 1, 72 h) is 50 µg/mL. Also, the “Minimum virus growth inhibition concentration (MIC)” value in data set [1] (setting [6]) amounted to 50 µg/mL. The MCC at 72 h in data set [2] and in [3] was over 50 µg/mL in each case. The “Lung Lesion Score” value in the data set on Influenza Ao PR/8 (10 mg/kg s.c., * P<0.05 (Student's t test)) worked out at 4.3; in the data set on Influenza Ao PR/8 (25 mg/kg s.c., * P<0.05 (Student's t test)) it was 4.1; in the data set with Influenza Ao PR/8 (50 mg/kg s.c., * P<0.05 (Student's t test)) it was 4.0.

With `CN(C)CCOCC(=O)NC12CC3CC(CC(C3)C1)C2` [Tromantadine, tromantadine], in data set [1] (Human alphaherpesvirus 1, host cells KB, 1000 TCD50, 72 hr, 37° C.), the MIC is 25 µg/mL (≈ 89.2 µM). Also, in the data set with DNA virus, the “anti DNA viral activities” value was “known to show an anti DNA viral activities”. This compound yielded an MCC at 72 h in data set [2] of over 50 µg/mL.

For `NC12CCCC3CC(CCC31)C2` (centres unmarked) [Compound A, 3-Amino-4-homoisotwistane hydrochloride], the results for the LD50 in the data set “in vivo” (iv) and in the data set “in vivo” (po) were 32 mg/kg and 300 mg/kg, respectively. The MIC in [1] (Human alphaherpesvirus 1, host cells HeLa, 1000 TCD50, 72 hr, 37° C.) was 5 µg/mL. In addition, in [1] (setting [6]), the “Minimum virus growth inhibition concentration (MIC)” value worked out at 5 µg/mL. Further, the “antiviral activities on influenza virus” value in the data set on influenza virus is given as “very strong antiviral activities”. In addition, the “cure period as compared with control” value in data set [4] is “did not prolong the cure period as compared with control”. Also, the MCC at 72 h in data set [2] and in data set [3] was 50 µg/mL each time. The “antiviral effects on herpes virus and so on, compared with tromantadine” value with herpes virus (comparison with tromantadine) was “much superior to those of tromantadine”. Moreover, in the data set with herpes virus (general statement), the “antiviral activities on herpes virus” value is reported as “very strong antiviral activities”. Also, the “Survival ratio (no. of survivors/no. of total mice)” value in data set [5] (5 mg/kg i.c., single, simultaneously with virus infection) is reported as 7/10; in data set [5] (10 mg/kg i.v., single at 3 hr. after infection), 2/10; in data set [5] (100 mg/kg p.o., twice per day during 8.5 days from 4 hr. after infection), 3/10; in data set [5] (100 mg/kg s.c., twice per day during 8.5 days from 4 hr. after infection), 5/10. Moreover, the “Mean no. of survival days” value is reported as 7.2 days in data set [5] (5 mg/kg i.c., single, simultaneously with virus infection, control 5.6); 8.0 days in [5] (10 mg/kg i.v., single at 3 hr. after infection, control 6.2); 7.8 days in data set [5] (100 mg/kg p.o., twice per day during 8.5 days from 4 hr. after infection, control 5.9); 7.6 days in data set [5] (100 mg/kg s.c., twice per day during 8.5 days from 4 hr. after infection, control 5.8). For the same compound, the “antiviral effects on Newcastle disease virus” value in the data set on Newcastle disease virus is recorded as “antiviral effects on Newcastle disease virus”. Moreover, the “Lung Lesion Score” value with Influenza Ao PR/8 (7.5 mg/kg s.c., no significance mark) came out at 4.6; in the data set with Influenza Ao PR/8 (15 mg/kg s.c., * P<0.05 (Student's t test)), 4.0; in the data set on Influenza Ao PR/8 (30 mg/kg s.c., * P<0.05 (Student's t test)) it was 4.2.
